Patent US20230295234A1, “ANTIMICROBIAL PEPTIDOMIMETICS” (SPEXIS AG, priority 2020, published 2023)
Where two headings read alike, the source gives them in different places. Bridge positions count the residues as written; N and C are the ends. Square brackets hold non-standard residues; d marks the D form. Peptide text beside a SMILES is read from it. Pro(4R-NH2) = N[C@H]1CN[C@H](C(=O)O)C1; Gly(N-2-aminoethyl) = NCCNCC(=O)O; Cha = N[C@@H](CC1CCCCC1)C(=O)O; Gly(N(CH2)3NH2) = NCCCNCC(=O)O; Pen = CC(C)(S)[C@H](N)C(=O)O; dDab = NCC[C@@H](N)C(=O)O; Nle = CCCC[C@H](N)C(=O)O; Dab = NCC[C@H](N)C(=O)O

Columns and labels:
[1] = test system: human red blood cells (hRBC); assay: Hemolysis of human red blood cells; type: cell-based; conditions: red cells of human, 1 h
How it was run: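 PBS-washed human red blood cells (20% v/v) were incubated with peptide at 200 μg/mL for 1 h at 37 °C with shaking. Supernatant OD was read at 540 nm after 8-fold dilution. Hemolysis is expressed as percent of the water control.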

[2] = test system: Klebsiella pneumoniae SSI3010; conditions: SSI3010
How it was run: (§1)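 Activity is measured against peptides serially diluted two-fold in water with 0.002% final Polysorbate 80. The cells are in cation-adjusted MHII broth at roughly 5×10^5 CFU/mL, prepared from a 0.5 McFarland suspension in 0.85% NaCl.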

[3] = test system: Escherichia coli ATCC 25922; conditions: ATCC 25922
How it was run: as §1

[4] = test system: Escherichia coli MCR-1 Af 45
How it was run: as §1

Klebsiella pneumoniae SSI3010 MIC [2] [µg/mL]	Escherichia coli ATCC 25922 MIC [3] [µg/mL]	Escherichia coli MCR-1 Af 45 MIC ([4]; MCR-1 Af 45) [µg/mL]	Structure (SMILES)	Hemolysis at 0.2 g/L [1] [%]	Escherichia coli MCR-1 Af 45 MIC ([4]; Mueller-Hinton broth II, 18-20 hours at 35° C.) [µg/mL]
0.125	0.125	0.125	CC[C@H](C)[C@H](NC(=O)[C@@H]1C[C@@H](O)CN1C(=O)[C@@H](NC(=O)CNCCCCN)C(C)C)C(=O)N[C@H](C(=O)N[C@@H](Cc1ccc(O)cc1)C(=O)N[C@@H]1C(=O)N[C@@H](CC(N)=O)C(=O)N[C@@H](CCCNC(=N)N)C(=O)N[C@@H](CCN)C(=O)N[C@@H]([C@@H](C)O)C(=O)N[C@H](CCN)C(=O)N[C@@H](CCCCN)C(=O)N[C@H](C(=O)N[C@@H](CCN)C(=O)N[C@@H](CCCNC(=N)N)C(=O)N[C@@H](Cc2ccc(O)cc2)C(=O)O)CSSC1(C)C)[C@@H](C)O [Example 34, Nlys-Val-Hyp-Ile-Thr-Tyr-Pen-Asn-Arg-Dab-Thr-^DDab-Lys-Cys-Dab-Arg-Tyr] (HELM PEPTIDE1{[NCCCCNCC(=O)[*:2]].V.[Hyp].I.T.Y.[Pen].N.R.[Dab].T.[NCC[C@@H](N[*:1])C(=O)[*:2]].K.C.[Dab].R.Y}$PEPTIDE1,PEPTIDE1,7:R3-14:R3$$$V2.0)	0	–
0.0625	≤0.03125	≤0.03125	CC[C@H](C)[C@H](NC(=O)[C@@H]1CCCN1C(=O)[C@@H](NC(=O)CN(C)C(=O)[C@H](CCCNC(=N)N)NC(=O)[C@@H](N)CCCCN)C(C)C)C(=O)N[C@H](C(=O)N[C@@H](Cc1ccc(O)cc1)C(=O)N[C@@H]1C(=O)N[C@@H](CC(N)=O)C(=O)N[C@@H](CCCNC(=N)N)C(=O)N[C@@H](CCN)C(=O)N[C@@H]([C@@H](C)O)C(=O)N[C@H](CCN)C(=O)N[C@@H](CCCCN)C(=O)N[C@H](C(=O)N[C@@H](CCN)C(=O)N[C@@H](CCCNC(=N)N)C(=O)N[C@@H](Cc2ccc(O)cc2)C(=O)O)CSSC1(C)C)[C@@H](C)O [Example 88, Lys-Arg-Sar-Val-Pro-Ile-Thr-Tyr-Pen-Asn-Arg-Dab-Thr-^DDab-Lys-Cys-Dab-Arg-Tyr] (HELM PEPTIDE1{K.R.[Sar].V.P.I.T.Y.[Pen].N.R.[Dab].T.[NCC[C@@H](N[*:1])C(=O)[*:2]].K.C.[Dab].R.Y}$PEPTIDE1,PEPTIDE1,9:R3-16:R3$$$V2.0)	0	–
0.25	0.25	0.125	CC[C@H](C)[C@H](NC(=O)[C@@H](NC(=O)[C@@H]1C[C@@H](N)CN1C(=O)[C@@H](NC(=O)[C@@H]1C[C@@H](N)CN1)C(C)C)[C@@H](C)CC)C(=O)N[C@@H](Cc1ccc(O)cc1)C(=O)N[C@@H]1C(=O)N[C@@H](CC(N)=O)C(=O)N[C@@H](CCCNC(=N)N)C(=O)N[C@@H](CCN)C(=O)N[C@@H]([C@@H](C)O)C(=O)N[C@H](CCN)C(=O)N[C@@H](CCCCN)C(=O)N[C@H](C(=O)N[C@@H](CCC(N)=O)C(=O)N[C@@H](CCCNC(=N)N)C(=O)N[C@@H](CC2CCCCC2)C(=O)O)CSSC1(C)C [Example 18, Pro((4R)NH2)-Val-Pro((4R)NH2)-Ile-Ile-Tyr-Pen-Asn-Arg-Dab-Thr-^DDab-Lys-Cys-Gln-Arg-Cha] (H-[Pro(4R-NH2)]V[Pro(4R-NH2)]IIY[Pen]NR[Dab]T[dDab]KCQR[Cha]-OH; disulfide 7-14)	0	–
0.125	0.125	0.125	CCCC[C@H](NC(=O)[C@H](CCCNC(=N)N)NC(=O)[C@H](CCN)NC(=O)[C@@H]1CSSC(C)(C)[C@H](NC(=O)[C@H](Cc2ccc(O)cc2)NC(=O)[C@@H](NC(=O)[C@@H](NC(=O)[C@@H]2CCCN2C(=O)[C@@H](NC(=O)[C@@H]2C[C@@H](N)CN2)C(C)C)[C@@H](C)CC)[C@@H](C)CC)C(=O)N[C@@H](CC(N)=O)C(=O)N[C@@H](CCCNC(=N)N)C(=O)N[C@@H](CCN)C(=O)N[C@@H]([C@@H](C)O)C(=O)N[C@H](CCN)C(=O)N[C@@H](CCCCN)C(=O)N1)C(=O)O [Example 4, Pro((4R)NH2)-Val-Pro-Ile-Ile-Tyr-Pen-Asn-Arg-Dab-Thr-^DDab-Lys-Cys-Dab-Arg-Nle] (HELM PEPTIDE1{[N[C@H]1CN[C@H](C(=O)[*:2])C1].V.P.I.I.Y.[Pen].N.R.[Dab].T.[NCC[C@@H](N[*:1])C(=O)[*:2]].K.C.[Dab].R.[Nle]}$PEPTIDE1,PEPTIDE1,7:R3-14:R3$$$V2.0)	0	–
0.25	0.125	0.125	CCCC[C@H](NC(=O)[C@H](CCCNC(=N)N)NC(=O)[C@H](CCN)NC(=O)[C@@H]1CSSC(C)(C)[C@H](NC(=O)[C@H](Cc2ccc(O)cc2)NC(=O)[C@@H](NC(=O)[C@@H](NC(=O)CN(CCN)C(=O)[C@@H](NC(=O)CNCCN)C(C)C)[C@@H](C)CC)[C@@H](C)CC)C(=O)N[C@@H](CC(N)=O)C(=O)N[C@@H](CCCNC(=N)N)C(=O)N[C@@H](CCN)C(=O)N[C@@H]([C@@H](C)O)C(=O)N[C@H](CCN)C(=O)N[C@@H](CCCCN)C(=O)N1)C(=O)O [Example 13, Ndab-Val-Ndab-Ile-Ile-Tyr-Pen-Asn-Arg-Dab-Thr-^DDab-Lys-Cys-Dab-Arg-Nle] (H-[Gly(N-2-aminoethyl)]V[Gly(N-2-aminoethyl)]IIY[Pen]NR[Dab]T[dDab]KC[Dab]R[Nle]-OH; disulfide 7-14)	0	–
0.25	0.25	0.25	CCCC[C@H](NC(=O)[C@H](CCCNC(=N)N)NC(=O)[C@H](CCN)NC(=O)[C@@H]1CSSC(C)(C)[C@H](NC(=O)[C@H](Cc2ccc(O)cc2)NC(=O)[C@@H](NC(=O)[C@@H](NC(=O)CN(CCCN)C(=O)[C@@H](NC(=O)CNCCCN)C(C)C)[C@@H](C)CC)[C@@H](C)CC)C(=O)N[C@@H](CC(N)=O)C(=O)N[C@@H](CCCNC(=N)N)C(=O)N[C@@H](CCN)C(=O)N[C@@H]([C@@H](C)O)C(=O)N[C@H](CCN)C(=O)N[C@@H](CCCCN)C(=O)N1)C(=O)O [Example 14, Norn-Val-Norn-Ile-Ile-Tyr-Pen-Asn-Arg-Dab-Thr-^DDab-Lys-Cys-Dab-Arg-Nle] (H-[Gly(N(CH2)3NH2)]V[Gly(N(CH2)3NH2)]IIY[Pen]NR[Dab]T[dDab]KC[Dab]R[Nle]-OH; disulfide 7-14)	0	–
0.125	0.0625	0.0625	CC[C@H](C)[C@H](NC(=O)[C@@H](NC(=O)[C@@H]1C[C@@H](O)CN1C(=O)[C@@H](NC(=O)[C@@H]1C[C@@H](O)CN1C(=O)[C@H](CCCCN)NC(=O)[C@@H](N)CCCCN)C(C)C)[C@@H](C)CC)C(=O)N[C@@H](Cc1ccc(O)cc1)C(=O)N[C@@H]1C(=O)N[C@@H](CC(N)=O)C(=O)N[C@@H](CCCNC(=N)N)C(=O)N[C@@H](CCN)C(=O)N[C@@H]([C@@H](C)O)C(=O)N[C@H](CCN)C(=O)N[C@@H](CCCCN)C(=O)N[C@H](C(=O)N[C@@H](CCN)C(=O)N[C@@H](CCCNC(=N)N)C(=O)N[C@@H](Cc2ccc(O)cc2)C(=O)O)CSSC1(C)C [Example 116, Lys-Lys-Hyp-Val-Hyp-Ile-Ile-Tyr-Pen-Asn-Arg-Dab-Thr-^DDab-Lys-Cys-Dab-Arg-Tyr] (HELM PEPTIDE1{K.K.[Hyp].V.[Hyp].I.I.Y.[Pen].N.R.[Dab].T.[NCC[C@@H](N[*:1])C(=O)[*:2]].K.C.[Dab].R.Y}$PEPTIDE1,PEPTIDE1,9:R3-16:R3$$$V2.0)	0	–
0.25	0.125	0.125	CCCC[C@H](NC(=O)[C@H](CCCNC(=N)N)NC(=O)[C@H](CCN)NC(=O)[C@@H]1CSSC(C)(C)[C@H](NC(=O)[C@H](Cc2ccc(O)cc2)NC(=O)[C@@H](NC(=O)[C@@H](NC(=O)[C@@H]2CCCN2C(=O)[C@@H](NC(=O)CNCCN)C(C)C)[C@@H](C)CC)[C@@H](C)CC)C(=O)N[C@@H](CC(N)=O)C(=O)N[C@@H](CCCNC(=N)N)C(=O)N[C@@H](CCN)C(=O)N[C@@H]([C@@H](C)O)C(=O)N[C@H](CCN)C(=O)N[C@@H](CCCCN)C(=O)N1)C(=O)O [Example 6, Ndab-Val-Pro-Ile-Ile-Tyr-Pen-Asn-Arg-Dab-Thr-^DDab-Lys-Cys-Dab-Arg-Nle] (HELM PEPTIDE1{[NCCNCC(=O)[*:2]].V.P.I.I.Y.[Pen].N.R.[Dab].T.[NCC[C@@H](N[*:1])C(=O)[*:2]].K.C.[Dab].R.[Nle]}$PEPTIDE1,PEPTIDE1,7:R3-14:R3$$$V2.0)	0	–

Structure (SMILES)	Klebsiella pneumoniae SSI3010 MIC [2] [µg/mL]	Escherichia coli ATCC 25922 MIC [3] [µg/mL]	Escherichia coli MCR-1 Af 45 MIC ([4]; MCR-1 Af 45) [µg/mL]	Hemolysis at 0.2 g/L [1] [%]	Escherichia coli MCR-1 Af 45 MIC ([4]; Mueller-Hinton broth II, 18-20 hours at 35° C.) [µg/mL]
CC[C@H](C)[C@H](NC(=O)[C@@H]1C[C@@H](O)CN1C(=O)[C@@H](N)C(C)C)C(=O)N[C@H](C(=O)N[C@@H](Cc1ccc(O)cc1)C(=O)N[C@@H]1C(=O)N[C@@H](CC(N)=O)C(=O)N[C@@H](CCCNC(=N)N)C(=O)N[C@@H](CCN)C(=O)N[C@@H]([C@@H](C)O)C(=O)N[C@H](CCN)C(=O)N[C@@H](CCCCN)C(=O)N[C@H](C(=O)N[C@@H](CCN)C(=O)N[C@@H](CCCCN)C(=O)N[C@@H](Cc2ccc(O)cc2)C(=O)O)CSSC1(C)C)[C@@H](C)O [Example 178] (HELM PEPTIDE1{V.[Hyp].I.T.Y.[Pen].N.R.[Dab].T.[NCC[C@@H](N[*:1])C(=O)[*:2]].K.C.[Dab].K.Y}$PEPTIDE1,PEPTIDE1,6:R3-13:R3$$$V2.0)	0.5	0.25	–	0	0.125
